Measured values taken from patent publication US8974848B1, “Ingestible product and method for enhancing the appearance and quality of teeth in-vivo” (priority 2008, dated 2015).

Tests used:
[1] = accelerated coffee staining test: hydroxyapatite disks immersed in concentrated coffee with or without additive; conditions: 7 minutes immersion in coffee (11 grams grounds to 0.5 cups water); uniform scale, 0 = un-stained disk, 5 = coffee without additive
Procedure: Initially, an accelerated staining test was performed using a very strong coffee concentrate with short periods of immersion. This protocol emulates the actual oral staining process; i.e., live teeth aren't generally submerged in coffee for long periods of time since coffee is only held in the mouth for short periods of time, and the residues are rapidly diluted by saliva. In addition, coffee chemistry and pH changes rapidly due to temperature-excited oxidation—which results in significant acid formation in the first 20 minutes after brewing. As a result, coffee immersion in-vitro for times exceeding 20 minutes exposes test-items to a chemical environment which is not representative of that found in a mouth during a typical human consumption of coffee.
As one representative example of multiple tests using CHITOSAN NICOTINATE as an essential substance to prevent staining of hydroxyapatite (as found in tooth enamel), 0.02 grams of CHITOSAN NICOTINATE was placed in one of two containers of coffee brewed with 11.0 grams of coffee grounds to 0.5 cups water. Then disks made of hydroxyapatite were immersed in each container for 7 minutes time; and subsequently compared to establish the degree of staining. For meaningful comparisons of staining, the non-CHITOSAN NICOTINATE coffee was used as the dark stain standard, with an arbitrary value of 5. […]

[2] = stain reversal: coffee-stained hydroxyapatite disk immersed in brewed coffee containing additive; conditions: previously coffee-stained disk immersed 15 minutes in brewed coffee with additive; original stain 100%, un-stained disk 0%
Procedure: In addition, when a previously-coffee-stained hydroxyapatite disk was half-immersed within the brewed coffee for 15 minutes, the coffee-immersed area was lightened by 10%, where the original stain is said to be 100% and an un-stained disk is said to be 0%.
As one example of multiple tests using protein-splitting enzymes as an essential ingredient to reverse staining of hydroxyapatite, 20 mg of Papain was placed in one container of coffee, which was then brewed with 11 grams of coffee grounds to 0.5 cups water. For this series of tests, only coffee-stained hydroxyapatite disks were then immersed in the freshly brewed coffee for 15 minutes time.

Molecule | degree of staining of hydroxyapatite disks [1] | coffee-immersed stained area lightened by [2] [%]
CS(C)(=O)=O [METHYLSULFONYLMETHANE (DIMETHYLSULFONE), METHYLSULFONYLMETHANE] | 2 | –
Papain: protein-splitting enzyme, plant protease (protein, UniProt P00784 134-345, looked up) Papain: IPEYVDWRQKGAVTPVKNQGSCGSCWAFSAVVTIEGIIKIRTGNLNEYSEQELLDCDRRSYGCNGGYPWSALQLVAQYGIHYRNTYPYEGVQRYCRSREKGPYAAKTDGVRQVQPYNEGALLYSIANQPVSVVLEAAGKDFQLYRGGIFVGPCGNKVDHAVAAVGYGPNYILIKNSWGTGWGENGYIRIKRGTGNSYGVCGLYTSSFYPVKN | – | 20
